Source: paper PMC4321733 (Bioorganic & medicinal chemistry letters, 2014)

molecular target: PDE10A (Homo sapiens, UniProt Q9Y233); assay: scintillation proximity assay; conditions: ratio of IC50 values
Sequence (Q9Y233 whole entry): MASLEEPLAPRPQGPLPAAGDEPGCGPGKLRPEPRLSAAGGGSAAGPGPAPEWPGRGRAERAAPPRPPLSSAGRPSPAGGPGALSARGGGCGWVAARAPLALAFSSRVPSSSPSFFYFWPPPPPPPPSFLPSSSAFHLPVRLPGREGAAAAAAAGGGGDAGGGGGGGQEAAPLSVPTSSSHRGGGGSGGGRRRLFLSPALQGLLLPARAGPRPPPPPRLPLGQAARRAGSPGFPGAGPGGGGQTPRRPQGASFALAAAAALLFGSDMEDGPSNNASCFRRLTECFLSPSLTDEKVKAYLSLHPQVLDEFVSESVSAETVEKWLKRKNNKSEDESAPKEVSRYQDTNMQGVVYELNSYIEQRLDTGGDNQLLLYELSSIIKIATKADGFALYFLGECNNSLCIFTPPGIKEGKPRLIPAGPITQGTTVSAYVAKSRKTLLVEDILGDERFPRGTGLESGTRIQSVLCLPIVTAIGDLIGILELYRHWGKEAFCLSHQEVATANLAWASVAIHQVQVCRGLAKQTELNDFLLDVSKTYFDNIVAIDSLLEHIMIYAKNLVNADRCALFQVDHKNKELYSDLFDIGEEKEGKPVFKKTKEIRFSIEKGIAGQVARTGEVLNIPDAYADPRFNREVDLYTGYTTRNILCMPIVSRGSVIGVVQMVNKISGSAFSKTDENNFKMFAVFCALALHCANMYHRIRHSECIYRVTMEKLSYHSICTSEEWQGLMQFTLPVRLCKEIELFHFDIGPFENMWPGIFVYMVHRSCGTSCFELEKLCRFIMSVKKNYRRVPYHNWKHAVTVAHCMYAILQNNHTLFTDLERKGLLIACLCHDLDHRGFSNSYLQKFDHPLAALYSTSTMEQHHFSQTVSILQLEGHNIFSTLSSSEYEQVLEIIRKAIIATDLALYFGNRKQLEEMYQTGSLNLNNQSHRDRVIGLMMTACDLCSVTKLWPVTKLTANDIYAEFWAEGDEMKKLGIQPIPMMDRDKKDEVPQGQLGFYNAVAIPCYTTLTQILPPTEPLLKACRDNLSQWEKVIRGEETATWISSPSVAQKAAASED

In vitro selectivity for PDE10A over PDE3A/3B, PDE4A/4B, > 1,000 fold:
COc1cc2nncc(-c3cnc(N4CCC(O)(c5cccnc5)CC4)c(C)c3)c2cc1OC [Compound 26a]
COc1cc2nncc(-c3cnc(N4CCC(O)(c5ccc(F)nc5)CC4)c(C)c3)c2cc1OC [Compound 26b]
Cn1c(C(=O)c2ccc(Oc3ncccc3-c3cccnc3)cc2)nc2ccccc21 [Compound 33c]
